From patent US20250115591A1, “NOVEL SULFONAMIDE CARBOXAMIDE COMPOUNDS” (INFLAZOME LIMITED, priority 2017, published 2025)
Counter-ions that a name gives are not always drawn.

Target: NLRP3 (Homo sapiens (Human), UniProt Q96P20)
Assay: THP-1 cells pyroptosis assay (LPS + nigericin, resazurin read-out)
Type: cell-based
Conditions: 1 μg/ml LPS, 5 μM nigericin
Description: THP-1 cells (ATCC #TIB-202) were grown in RPMI containing L-glutamine (Gibco 15 #11835) supplemented with 1 mM sodium pyruvate (Sigma #S8636) and penicillin (100 units/ml)/streptomycin (0.1 mg/ml) (Sigma #P4333) in 10% Fetal Bovine Serum (FBS) (Sigma #F0804). The cells were routinely passaged and grown to confluency (˜10^6 cells/ml). On the day of the experiment, THP-1 cells were harvested and resuspended into RPMI medium (without FBS). The cells were then counted and viability (>90%) checked by Trypan blue (Sigma #T8154). Appropriate dilutions were made to give a concentration of 625,000 cells/ml. To this diluted cell solution was added LPS (Sigma #[4524) to give a 1 μg/ml Final Assay Concentration (FAC). 40μ of the final preparation was aliquoted into each well of a 96-well plate. The plate thus prepared was used for compound screening.
The following method step-by-step assay was followed for compound screening. • 1. Seed THP-1 cells (25,000 cells/well) containing 1.0 μg/ml LPS in 40μ of RPMI medium (without FBS) in 96-well, black walled, clear bottom cell culture plates coated with poly-D-lysine (VWR #734-0317) • 2. Add 5 μl compound (8 points half-log dilution, with […]) or vehicle (DMSO 0.1% FAC) to the appropriate wells • 3. Incubate for 3 hrs at 37° C. and 5% CO2 • 4. Add 5 μl nigericin (Sigma #N7143) (FAC 5 μM) to all wells • 5. Incubate for 1 hr at 37° C. and 5% CO2 • 6. At the end of the incubation period, spin plates at 300×g for 3 mins and remove supernatant • 7. Then add 50 μl of resazurin (Sigma #R7017) (FAC 100 μM resazurin in RPMI medium without FBS) and incubate plates for a further 1-2 hrs at 37° C. and 5% CO2 • 8. Plates were read in an Envision reader at Ex 560 nm and Em 590 nm • 9. IC50 data is fitted to a non-linear regression equation (log inhibitor vs response-variable slope 4-parameters)

Sequence of NLRP3 (Q96P20 whole entry): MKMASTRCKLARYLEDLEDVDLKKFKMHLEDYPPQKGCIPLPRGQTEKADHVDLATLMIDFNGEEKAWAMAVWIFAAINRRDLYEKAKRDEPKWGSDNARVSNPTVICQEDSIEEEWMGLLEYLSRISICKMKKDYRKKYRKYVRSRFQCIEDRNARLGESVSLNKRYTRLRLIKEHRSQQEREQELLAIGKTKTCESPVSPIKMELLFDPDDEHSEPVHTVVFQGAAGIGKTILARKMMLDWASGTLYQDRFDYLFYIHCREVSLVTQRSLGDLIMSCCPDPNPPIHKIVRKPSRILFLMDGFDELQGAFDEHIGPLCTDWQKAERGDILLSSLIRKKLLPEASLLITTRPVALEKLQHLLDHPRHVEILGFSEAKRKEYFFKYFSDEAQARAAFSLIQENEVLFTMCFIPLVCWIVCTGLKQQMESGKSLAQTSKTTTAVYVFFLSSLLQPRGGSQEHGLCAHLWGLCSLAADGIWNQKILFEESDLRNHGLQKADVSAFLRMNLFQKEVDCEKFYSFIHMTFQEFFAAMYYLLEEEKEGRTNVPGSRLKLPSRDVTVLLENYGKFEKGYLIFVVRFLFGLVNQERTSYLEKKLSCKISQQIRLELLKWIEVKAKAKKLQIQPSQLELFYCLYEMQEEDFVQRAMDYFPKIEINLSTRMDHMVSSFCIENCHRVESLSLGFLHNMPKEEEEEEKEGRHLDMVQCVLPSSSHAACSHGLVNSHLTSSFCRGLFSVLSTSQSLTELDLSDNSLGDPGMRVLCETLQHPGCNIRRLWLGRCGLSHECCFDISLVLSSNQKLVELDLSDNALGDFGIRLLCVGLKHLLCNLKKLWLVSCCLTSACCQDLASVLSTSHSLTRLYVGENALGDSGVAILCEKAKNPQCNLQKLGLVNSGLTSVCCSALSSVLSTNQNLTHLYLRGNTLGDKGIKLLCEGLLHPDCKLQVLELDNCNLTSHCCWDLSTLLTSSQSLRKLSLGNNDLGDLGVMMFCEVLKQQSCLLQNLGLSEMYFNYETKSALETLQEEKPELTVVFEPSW

Row | SMILES | IC50
1 | COC1CN(C)CC1S(=O)(=O)NC(=O)Nc1c2c(cc3c1CCC3)CCC2 (centres unmarked) [Example 149, N-((1,2,3,5,6,7-Hexahydro-s-indacen-4-yl)carbamoyl)-4-methoxy-1-methylpyrrolidine-3-sulfonamide, potassium salt] | 1000 to 10000 nM
2 | CC(C)(C)OC(=O)N1CC(S(=O)(=O)NC(=O)Nc2c3c(cc4c2CCC4)CCC3)C1 [Example 77, tert-Butyl 3-(N-((1,2,3,5,6,7-hexahydro-s-indacen-4-yl)carbamoyl)sulfamoyl)azetidine-1-carboxylate, potassium salt] | 1000 to 10000 nM
3 | O=C(Nc1c2c(cc3c1CCC3)CCC2)NS(=O)(=O)C1CCCN(CC2CC2)C1 (centres unmarked) [Example 57, 1-(Cyclopropylmethyl)-N-((1,2,3,5,6,7-hexahydro-s-indacen-4-yl)carbamoyl)piperidine-3-sulfonamide, potassium salt] | 1000 to 10000 nM
4 | O=C(Nc1c2c(cc3c1CCC3)CCC2)NS(=O)(=O)C1CN(C2C[S+]([O-])C2)C1 (centres unmarked) [Example 117, N-((1,2,3,5,6,7-Hexahydro-s-indacen-4-yl)carbamoyl)-1-(1-oxidothietan-3-yl)azetidine-3-sulfonamide, potassium salt] | < 1000 nM
5 | O=C(Nc1c2c(cc3c1CCC3)CCC2)NS(=O)(=O)C1CCN(C2CCC2)CC1 [Example 15, 1-Cyclobutyl-N-((1,2,3,5,6,7-hexahydro-s-indacen-4-yl)carbamoyl)piperidine-4-sulfonamide, potassium salt] | 1000 to 10000 nM
6 | O=C(Nc1c2c(cc3c1CCC3)CCC2)NS(=O)(=O)C1CN(C2COC2)C1 [Example 116, N-((1,2,3,5,6,7-Hexahydro-s-indacen-4-yl)carbamoyl)-1-(oxetan-3-yl)azetidine-3-sulfonamide, potassium salt] | 1000 to 10000 nM
7 | COCCN1CC(S(=O)(=O)NC(=O)Nc2c3c(cc4c2CCC4)CCC3)C1 [Example 88, N-((1,2,3,5,6,7-Hexahydro-s-indacen-4-yl)carbamoyl)-1-(2-methoxyethyl)azetidine-3-sulfonamide, potassium salt] | < 1000 nM
8 | COc1cc(-c2ccc3c(c2NC(=O)NS(=O)(=O)c2ccn(C(C)C)c(=O)c2)CCC3)ccn1 [Example 179, 1-Isopropyl-N-((5-(2-methoxypyridin-4-yl)-2,3-dihydro-1H-inden-4-yl)carbamoyl)-2-oxo-1,2-dihydropyridine-4-sulfonamide, sodium salt] | < 1000 nM
9 | O=C(Nc1c2c(cc3c1CCC3)CCC2)NS(=O)(=O)C1CCN(C2COC2)CC1 [Example 20, N-((1,2,3,5,6,7-Hexahydro-s-indacen-4-yl)carbamoyl)-1-(oxetan-3-yl)piperidine-4-sulfonamide, potassium salt] | 1000 to 10000 nM
10 | C#CCN1CCCC(S(=O)(=O)NC(=O)Nc2c3c(cc4c2CCC4)CCC3)C1 (centres unmarked) [Example 59, N-((1,2,3,5,6,7-Hexahydro-s-indacen-4-yl)carbamoyl)-1-(prop-2-yn-1-yl)piperidine-3-sulfonamide, potassium salt] | 1000 to 10000 nM
11 | CCN1CCC(N2CCC(S(=O)(=O)NC(=O)Nc3c4c(cc5c3CCC5)CCC4)CC2)CC1 [Example 48, 1′-Ethyl-N-((1,2,3,5,6,7-hexahydro-s-indacen-4-yl)carbamoyl)-[1,4′-bipiperidine]-4-sulfonamide, potassium salt] | 1000 to 10000 nM
12 | CCN1CC2(CC(S(=O)(=O)NC(=O)Nc3c4c(cc5c3CCC5)CCC4)C2)C1 [Example 50, 2-Ethyl-N-((1,2,3,5,6,7-hexahydro-s-indacen-4-yl)carbamoyl)-2-azaspiro[3.3]heptane-6-sulfonamide, potassium salt] | 1000 to 10000 nM
13 | CC(C)c1cc(F)cc(-c2cccnc2)c1NC(=O)NS(=O)(=O)C1CCN(C(C)C)CC1 [Example 176, N-((4-Fluoro-2-isopropyl-6-(pyridin-3-yl)phenyl)carbamoyl)-1-isopropylpiperidine-4-sulfonamide] | 1000 to 10000 nM
14 | N#CCN1CCC(S(=O)(=O)NC(=O)Nc2c3c(cc4c2CCC4)CCC3)CC1 [Example 14, 1-(Cyanomethyl)-N-((1,2,3,5,6,7-hexahydro-s-indacen-4-yl)carbamoyl)piperidine-4-sulfonamide, potassium salt] | 1000 to 10000 nM
15 | CC(C)n1ccc(S(=O)(=O)NC(=O)Nc2c3c(cc4c2CCC4)CCC3)cc1=O [Example 180, N-((1,2,3,5,6,7-Hexahydro-s-indacen-4-yl)carbamoyl)-1-isopropyl-2-oxo-1,2-dihydropyridine-4-sulfonamide, sodium salt] | 1000 to 10000 nM
16 | CC(=N)N1CC(S(=O)(=O)NC(=O)Nc2c3c(cc4c2CCC4)CCC3)C1 [Example 100, N-((1,2,3,5,6,7-Hexahydro-s-indacen-4-yl)carbamoyl)-1-(1-iminoethyl)azetidine-3-sulfonamide, potassium salt] | 1000 to 10000 nM
17 | CC1CC(N2CC(S(=O)(=O)NC(=O)Nc3c4c(cc5c3CCC5)CCC4)C2)C1 (centres unmarked) [Example 118, N-((1,2,3,5,6,7-Hexahydro-s-indacen-4-yl)carbamoyl)-1-(3-methylcyclobutyl)azetidine-3-sulfonamide, potassium salt] | < 1000 nM
18 | O=C(Nc1c2c(cc3c1CCC3)CCC2)NS(=O)(=O)C1CCN(C(=O)C(F)(F)F)C1 (centres unmarked) [Example 54, N-((1,2,3,5,6,7-Hexahydro-s-indacen-4-yl)carbamoyl)-1-(2,2,2-trifluoroacetyl)pyrrolidine-3-sulfonamide, potassium salt] | 1000 to 10000 nM
19 | O=C(Nc1c2c(cc3c1CCC3)CCC2)NS(=O)(=O)C1CN(C2CS(=O)(=O)C2)C1 [Example 120, 1-(1,1-Dioxidothietan-3-yl)-N-((1,2,3,5,6,7-hexahydro-s-indacen-4-yl)carbamoyl)azetidine-3-sulfonamide, potassium salt] | 1000 to 10000 nM
20 | C/C(CN1CC(S(=O)(=O)NC(=O)Nc2c3c(cc4c2CCC4)CCC3)C1)=N/O [Example 128, N-((1,2,3,5,6,7-Hexahydro-s-indacen-4-yl)carbamoyl)-1-(2-(hydroxyimino)propyl)azetidine-3-sulfonamide, potassium salt] | 1000 to 10000 nM
21 | C#CCCC1(CCN2CC(S(=O)(=O)NC(=O)Nc3c4c(cc5c3CCC5)CCC4)C2)N=N1 [Example 111, 1-(2-(3-(But-3-yn-1-yl)-3H-diazirin-3-yl)ethyl)-N-((1,2,3,5,6,7-hexahydro-s-indacen-4-yl)carbamoyl)azetidine-3-sulfonamide, potassium salt] | 1000 to 10000 nM
22 | CCN1CC(OC)C(S(=O)(=O)NC(=O)Nc2c3c(cc4c2CCC4)CCC3)C1 (centres unmarked) [Example 150, 1-Ethyl-N-((1,2,3,5,6,7-hexahydro-s-indacen-4-yl)carbamoyl)-4-methoxypyrrolidine-3-sulfonamide, potassium salt] | < 1000 nM
23 | CC(C)c1cc(F)cc(-c2cccnc2)c1NC(=O)NS(=O)(=O)C1CN(C(C)C)C1 [Example 175, N-((4-Fluoro-2-isopropyl-6-(pyridin-3-yl)phenyl)carbamoyl)-1-isopropylazetidine-3-sulfonamide] | < 1000 nM
24 | CCN1CC(S(=O)(=O)NC(=O)Nc2c3c(cc4c2CCC4)CCC3)Cc2ccccc21 (centres unmarked) [Example 66, 1-Ethyl-N-((1,2,3,5,6,7-hexahydro-s-indacen-4-yl)carbamoyl)-1,2,3,4-tetrahydroquinoline-3-sulfonamide, potassium salt] | < 1000 nM
25 | CN1CCCC(S(=O)(=O)NC(=O)Nc2c3c(cc4c2CCC4)CCC3)CC1 (centres unmarked) [Example 195, N-((1,2,3,5,6,7-hexahydro-s-indacen-4-yl)carbamoyl)-1-methylazepane-4-sulfonamide, potassium salt] | < 1000 nM
26 | CC(C)c1cc(F)cc(-c2ccnc(C#N)c2)c1NC(=O)NS(=O)(=O)C1CN(Cc2cccnc2)C1 [Example 169, N-((2-(2-Cyanopyridin-4-yl)-4-fluoro-6-isopropylphenyl)carbamoyl)-1-(pyridin-3-ylmethyl)azetidine-3-sulfonamide] | 1000 to 10000 nM
27 | O=C(Nc1c2c(cc3c1CCC3)CCC2)NS(=O)(=O)C1CN(CCC2CCOC2)C1 (centres unmarked) [Example 142, N-((1,2,3,5,6,7-Hexahydro-s-indacen-4-yl)carbamoyl)-1-(2-(tetrahydrofuran-3-yl)ethyl)azetidine-3-sulfonamide, potassium salt] | < 1000 nM
28 | Cn1cc(CN2CC(S(=O)(=O)NC(=O)Nc3c4c(cc5c3CCC5)CCC4)C2)ccc1=O [Example 140, N-((1,2,3,5,6,7-Hexahydro-s-indacen-4-yl)carbamoyl)-1-((1-methyl-6-oxo-1,6-dihydropyridin-3-yl)methyl)azetidine-3-sulfonamide, potassium salt] | < 1000 nM
29 | CSCCN1CC(S(=O)(=O)NC(=O)Nc2c3c(cc4c2CCC4)CCC3)C1 [Example 107, N-((1,2,3,5,6,7-Hexahydro-s-indacen-4-yl)carbamoyl)-1-(2-(methylthio)ethyl)azetidine-3-sulfonamide, potassium salt] | < 1000 nM
